Reference: patent US8222278B2, “Treatment of attention-deficit/hyperactivity disorder” (Abbott Laboratories, priority 2008, dated 2012)
Like-named read-outs stand apart in the source and are kept apart here.

Test: Steady state pharmacokinetics of ABT-894 after multiple oral doses
Format: in vivo, human
Settings: for Cave / Cmin / Cmax / AUC: multiple doses, steady state; for Tmax: QD or BID
Protocol: Steady state pharmacokinetic parameters of ABT-894 were determined in randomized, double-blind, placebo-controlled, parallel-design or crossover-design studies conducted with ABT-894. In these studies ABT-894 or matching placebo was administered orally either once daily (QD) or twice daily (BID) to subjects and serial blood samples were collected in order to determine ABT-894 plasma concentrations and pharmacokinetic parameters.
As used herein, Cmax refers to peak plasma concentration of a therapeutic agent, in this case ABT-894, under steady state conditions.
As used herein, Cave refers to average plasma concentration of a therapeutic agent. in this case ABT-894, under steady state conditions.
As used herein, Cmin refers to the minimum plasma concentration of a therapeutic agent, in this case ABT-894, under steady state conditions.
As used herein. Tmax refers to the time required to reach peak concentration.
As used herein, AUC12 refers to the area under the curve determined for 12 hours.
As used herein. AUC24 refers to the area under the curve determined for 24 hours.

Structure (SMILES): Clc1cc(N2C[C@@H]3CN[C@@H]3C2)cnc1Cl [ABT-894, 3-(5,6-Dichloro-pyridin-3-yl)-1S,5S-3,6-diazabicyclo[3.2.0]heptane]
- Cave (2 mg QD, plasma): about 2 ng/mL
- Cmin (2 mg QD, plasma): about 0.3 ng/mL
- Cave (4 mg BID, plasma): 6 to 10 ng/mL
- Cmin (4 mg BID, plasma): 2 to 4 ng/mL
- Cmax (human, oral, 2 mg QD, plasma): ~5 ng/mL
- AUC (human, oral, 2 mg QD, plasma, read-out: AUC24): ~46 ng·h/mL
- Cmax (human, oral, 4 mg BID, plasma): 11 to 15 ng/mL
- AUC (human, oral, 4 mg BID, plasma, read-out: AUC12): 72 to 114 ng·h/mL
- Tmax (human, plasma, po, read-out: Tmax): 2 to 4 h
- Tmax (oral): 2 to 3 h
